# Read-outs that look alike come from different tables or passages of the source.
# Columns and labels:
# Human Skin Chymase [1] = molecular target: T1, Human Skin Chymase (Homo sapiens, UniProt P23946); experiment: Chymase 10 μM Screen Method; assay type: biochemical; conditions: read-out: Chymase % Inhibition (10 μM)
# T1 construct: purchased Cortex Biochem CP1129; host or cells: human skin
# T1 sequence (P23946 22-247): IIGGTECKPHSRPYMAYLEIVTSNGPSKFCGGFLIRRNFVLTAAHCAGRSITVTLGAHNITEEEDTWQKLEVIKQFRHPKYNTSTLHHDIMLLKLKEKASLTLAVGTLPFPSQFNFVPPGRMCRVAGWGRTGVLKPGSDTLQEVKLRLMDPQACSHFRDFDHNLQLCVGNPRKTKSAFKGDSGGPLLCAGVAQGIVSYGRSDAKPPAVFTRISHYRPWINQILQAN
# Experimental: The enzyme reaction is started by the addition of enzyme ([E]: 1.0 nM human Lung Tryptase; Cortex Biochem CP3033). Data is collected over a period of 30 min. and the initial rate of substrate hydrolysis (Vo (mOD/min)) is calculated. Inhibition is calculated by comparing to wells containing no inhibitor (vehicle) and IC50 s are determined using a four parameter fit logistics model. […] Data is collected over a period of 30 min. and the initial rate of substrate hydrolysis (Vo (mOD/min)) is calculated. Inhibition is calculated by comparing to wells containing no inhibitor (vehicle) and IC50 s are determined using a four parameter fit logistics model. […] The enzyme reaction is started by the addition of enzyme ([E]: 5.0 nM Human Skin Chymase; Cortex Biochem CP1129), and 3 hours following that addition data is collected. After subtracting background (no enzyme addition), inhibition is calculated by comparing to wells containing no inhibitor (vehicle).
# [2] = Bioavailability, ex vivo thrombin inhibition assay after i.v. and p.o. dosing; assay type: in vivo; conditions: rat, plasma, po, male rats
# Experimental: Bioavailability was determined by an ex vivo thrombin inhibition assay which incorporated hydrolysis rates from drug administered both i.v. and p.o. In this assay male rats were prepared as described above with a Teflon tube implanted in their femoral artery. Blood was drawn from the animals 15 min before dosing with the inhibitor (0.25 mL blood was drawn into a syringe containing 0.025 mL of Sigma sodium citrate) and set aside for analysis. The test compound was dispersed in water (0.3-3.0 mg/mL final conc.) and delivered to the animals (0.25 mL) either i.v. or p.o.. […] This sample was analyzed for thrombin inhibition using the chromogenic assay, described below.
# The rate of increase in absorbance at 405 nm of synthetic peptides (50 μM Spectozyme® TH (H-D-HHT-Ala-Arg-pNA-2AcOH), American Diagnostica) was measured in the presence of plasma with a microplate reader (Molecular Devices) at 37° C. using an aqueous buffer (10 mM Tris, 10 mM Hepes, 150 mM NaCI, 0.1% PEG; pH 7.4). […] Datum were collected over a 30 min period and the initial rate of substrate hydrolysis (VO (mOD/min)) was calculated with an analysis program (Softmax, Molecular Devices). […]
# The percentage of thrombin inhibition in the treated animals was calculated by comparing the V0 prior to treatment with the V0 obtained from samples collected after treatment. […]
# in vivo = experiment: in vivo; set-up: species or system male rats (Long Evans); conditions: rat, iv
# Experimental: Since the compounds of the formula (l) are also potent thrombin inhibitors (see U.S. Pat. No. 5,523,308), an ex vivo thrombin assay was conducted to determine the duration of action of the compounds of Formula I. For this i.v. assay male rats (Long Evans, 350-500 g) were implanted with a teflon cannulae via the femoral artery while under anesthesia (pentobarbital i.p., 35 mg/kg). After surgery, the animals were individually housed in standard cages, fed with rat chow (Hanlan, #8604) and continuously infused with physiological saline to maintain arterial patency, (0.5 mL/h, intra arterial) using a spring-shielded swiveling tether connected to an infusion system. The animals were allowed to recover for at least 24 h after the surgical procedure.
# A sample of blood was drawn from the animals 15 min before dosing with the inhibitor (0.25 mL blood is drawn into a syringe containing 0.025 mL of Sigma sodium citrate). The test compound was dispersed in water and delivered to the animal (0.25 mL) via the femoral vein. The inhibitor was given at a concentration (mg/mL) which produced 80% inhibition of VO in a plasma sample at 5 min after infusion. Blood was drawn from the arterial line (blood:sodium citrate, 0.25/0.025 mL ) at regular intervals after dosing (5, 10, 15, 30, 60 and 120 min) and placed in a centrifuge tube. A plasma sample was obtained by centrifuging the blood at 10,000 rpm for 5 min. This sample is analyzed for thrombin inhibition using the chromogenic assay, described below.
# The rate of increase in absorbance at 405 nm of synthetic peptides (50 μM Spectozyme® TH (H-D-HHT-Ala-Arg-pNA-2AcOH), American Diagnostica) is measured in the presence of plasma with a microplate reader (Molecular Devices) at 37° C. using an aqueous buffer (10 mM Tris, 10 mM Hepes, 150 mM NaCl, 0.1% PEG; pH 7.4). The buffer was added to the plasma samples (1:1) dilution prior to delivery to the microplate (1:5 and 1:50 for final plasma dilutions of 1:10 and 1:100 respectively) followed by the enzyme (1 nM human α thrombin). Datum was collected over a 30 min period and the initial rate of substrate hydrolysis (V0 (mOD/min)) was calculated with an analysis program (Softmax, Molecular Devices).
# The time to half plasma elimination (t 1/2) was calculated from the slope of VO vs. time, using the following equation: […]. These datum are presented in Table L. In Table L, the compound # corresponds to the compound number described in U.S. Pat. No. 5,523,308.
# human Lung Tryptase = experiment: Tryptase IC50 Method; assay type: biochemical; conditions: 37° C., 1.0 nM enzyme, 500 μM substrate
# Experimental: (§1) The enzyme reaction is started by the addition of enzyme ([E]: 1.0 nM human Lung Tryptase; Cortex Biochem CP3033). Data is collected over a period of 30 min. and the initial rate of substrate hydrolysis (Vo (mOD/min)) is calculated. Inhibition is calculated by comparing to wells containing no inhibitor (vehicle) and IC50 s are determined using a four parameter fit logistics model. […] The enzyme reaction is started by the addition of enzyme ([E]: 10.0 nM Human Skin Chymase; Cortex Biochem CPl 129). Data is collected over a period of 30 min. and the initial rate of substrate hydrolysis (Vo (mOD/min)) is calculated. Inhibition is calculated by comparing to wells containing no inhibitor (vehicle) and IC50 s are determined using a four parameter fit logistics model. Chymase 10 μM Screen Method: The optical density at 405 nm due to hydrolysis of synthetic chromogenic peptide substrates ([S]: 500 μM Suc-Ala-Ala-Pro-Phe-pNA; Bachem L-1400) is measured in the presence and absence of inhibitor compounds of formula (I) with a microplate reader at room temperature. The enzyme reaction is started by the addition of enzyme ([E]: 5.0 nM Human Skin Chymase; Cortex Biochem CP1129), and 3 hours following that addition data is collected. After subtracting background (no enzyme addition), inhibition is calculated by comparing to wells containing no inhibitor (vehicle).
# Human Skin Chymase [3] = molecular target: T1, Human Skin Chymase; experiment: Chymase IC50 Method; assay type: biochemical; conditions: 37° C., 10.0 nM enzyme, 500 μM substrate
# Experimental: as §1
smiles,measurement,setting,value
CN[C@H](Cc1ccccc1)C(=O)N1CCC[C@H]1C(=O)N[C@@H](CCCNC(=N)N)C(=O)c1nc2ccccc2s1 [Compound 1],inhibition at 10 µM,"Human Skin Chymase [1]; 10 μM, room temperature, 5.0 nM enzyme, 3 hours",2%
same,bioavailability,[2],1.2%
same,half-life,in vivo,19 min
same,IC50,human Lung Tryptase,7.5 nM
CN[C@H](Cc1ccccc1)C(=O)N1CCC[C@H]1C(=O)N[C@@H](Cc1ccccc1)C(=O)c1nc2ccccc2s1 [Compound 38],inhibition at 10 µM,Human Skin Chymase [1],94%
same,IC50,Human Skin Chymase [3],2700 nM

# Source: US6323219A, “Methods for treating immunomediated inflammatory disorders” (Ortho-McNeil Pharmaceutical, Inc., priority 1999, dated 2001)
